In ChEMBL document CHEMBL4190297, “Cafestol, a Bioactive Substance in Coffee, Has Antidiabetic Properties in KKAy Mice” (J Nat Prod, 2017):
The source made the active and inactive calls.

Columns and labels:
Mus musculus [1] = organism: Mus musculus; experiment: Effect on G6PD mRNA expression levels in adipose tissue of KK-Ay diabetic mouse model at 0.4 to 1.1 mg added daily to normal chow pellets for 10 weeks by qRT-PCR analysis; type: functional, organism-based
Mus musculus [2] = organism: Mus musculus; experiment: Effect on 18s rRNA expression levels in muscle of KK-Ay diabetic mouse model at 0.4 to 1.1 mg added daily to normal chow pellets for 10 weeks by qRT-PCR analysis; type: functional, organism-based
Mus musculus [3] = organism: Mus musculus; experiment: Toxicity in KK-Ay diabetic mouse model assessed as effect on average 24 hrs food consumption by measured food consumption at 1.1 mg added daily to normal chow pellets for 10 weeks (reference value: 4.7 +/- 0.2 g); type: organism-based; conditions: in vivo, po
Mus musculus [4] = organism: Mus musculus; experiment: Effect on SOD1 mRNA expression levels in adipose tissue of KK-Ay diabetic mouse model at 0.4 to 1.1 mg added daily to normal chow pellets for 10 weeks by qRT-PCR analysis; type: functional, organism-based
Mus musculus [5] = organism: Mus musculus; experiment: Effect on Lipc mRNA expression levels in liver of KK-Ay diabetic mouse model at 0.4 to 1.1 mg added daily to normal chow pellets for 10 weeks by qRT-PCR analysis; type: functional, organism-based
Mus musculus [6] = organism: Mus musculus; experiment: Effect on PPARalpha mRNA expression levels in muscle of KK-Ay diabetic mouse model at 0.4 to 1.1 mg added daily to normal chow pellets for 10 weeks by qRT-PCR analysis; type: functional, organism-based
Mus musculus [7] = organism: Mus musculus; experiment: Induction of […] glucose-stimulated insulin secretion in pancreatic islets isolated from KK-Ay diabetic mouse model at 1.1 mg added daily to normal chow pellets for 10 weeks followed by glucose stimulation of isolated pancreatic islets for 1 hr by radioimmunoassay relative to control; type: functional
Mus musculus [8] = organism: Mus musculus; experiment: Effect on IRS2 mRNA expression levels in adipose tissue of KK-Ay diabetic mouse model at 0.4 to 1.1 mg added daily to normal chow pellets for 10 weeks by qRT-PCR analysis; type: functional, organism-based
Mus musculus [9] = organism: Mus musculus; experiment: Effect on Lipc mRNA expression levels in adipose tissue of KK-Ay diabetic mouse model at 0.4 to 1.1 mg added daily to normal chow pellets for 10 weeks by qRT-PCR analysis; type: functional, organism-based
Mus musculus [10] = organism: Mus musculus; experiment: Antidiabetic activity in KK-Ay diabetic mouse model assessed as increase in insulin levels in plasma at 1.1 mg added daily to normal chow pellets for 10 weeks by radioimmunoassay; type: functional, organism-based
Mus musculus [11] = organism: Mus musculus; experiment: Effect on Gcgr mRNA expression levels in muscle of KK-Ay diabetic mouse model at 0.4 to 1.1 mg added daily to normal chow pellets for 10 weeks by qRT-PCR analysis; type: functional, organism-based
Mus musculus [12] = organism: Mus musculus; experiment: Effect on CD36 mRNA expression levels in adipose tissue of KK-Ay diabetic mouse model at 0.4 to 1.1 mg added daily to normal chow pellets for 10 weeks by qRT-PCR analysis; type: functional, organism-based
Mus musculus [13] = organism: Mus musculus; experiment: Antidiabetic activity in KK-Ay diabetic mouse model assessed as increase in insulin levels in plasma at 0.4 mg added daily to normal chow pellets for 10 weeks by radioimmunoassay; type: functional, organism-based
Mus musculus [14] = organism: Mus musculus; experiment: Effect on FABP4 mRNA expression levels in adipose tissue of KK-Ay diabetic mouse model at 0.4 to 1.1 mg added daily to normal chow pellets for 10 weeks by qRT-PCR analysis; type: functional, organism-based
Mus musculus [15] = organism: Mus musculus; experiment: Effect on Acaca mRNA expression levels in adipose tissue of KK-Ay diabetic mouse model at 0.4 to 1.1 mg added daily to normal chow pellets for 10 weeks by qRT-PCR analysis; type: functional, organism-based
Mus musculus [16] = organism: Mus musculus; experiment: Effect on SOD2 mRNA expression levels in adipose tissue of KK-Ay diabetic mouse model at 0.4 to 1.1 mg added daily to normal chow pellets for 10 weeks by qRT-PCR analysis; type: functional, organism-based
Mus musculus [17] = organism: Mus musculus; experiment: Effect on Adipor1 mRNA expression levels in muscle of KK-Ay diabetic mouse model at 0.4 to 1.1 mg added daily to normal chow pellets for 10 weeks by qRT-PCR analysis; type: functional, organism-based
Mus musculus [18] = organism: Mus musculus; experiment: Effect on Acaca mRNA expression levels in muscle of KK-Ay diabetic mouse model at 0.4 to 1.1 mg added daily to normal chow pellets for 10 weeks by qRT-PCR analysis; type: functional, organism-based
Mus musculus [19] = organism: Mus musculus; experiment: Toxicity in KK-Ay diabetic mouse model assessed as effect on body weight at 0.4 mg added daily to normal chow pellets for 4 weeks; type: organism-based; conditions: in vivo, po, 672 h
Mus musculus [20] = organism: Mus musculus; experiment: Effect on Lipc mRNA expression levels in muscle of KK-Ay diabetic mouse model at 0.4 to 1.1 mg added daily to normal chow pellets for 10 weeks by qRT-PCR analysis; type: functional, organism-based
Mus musculus [21] = organism: Mus musculus; experiment: Effect on SOD1 mRNA expression levels in muscle of KK-Ay diabetic mouse model at 0.4 to 1.1 mg added daily to normal chow pellets for 10 weeks by qRT-PCR analysis; type: functional, organism-based
Mus musculus [22] = organism: Mus musculus; experiment: Effect on 18s rRNA expression levels in adipose tissue of KK-Ay diabetic mouse model at 0.4 to 1.1 mg added daily to normal chow pellets for 10 weeks by qRT-PCR analysis; type: functional, organism-based
Mus musculus [23] = organism: Mus musculus; experiment: Toxicity in KK-Ay diabetic mouse model assessed as effect on average 24 hrs food consumption by measured food consumption at 0.4 mg added daily to normal chow pellets for 10 weeks (reference value: 4.7 +/- 0.2 g); type: organism-based; conditions: in vivo, po
Mus musculus [24] = organism: Mus musculus; experiment: Effect on Hprt1 mRNA expression levels in adipose tissue of KK-Ay diabetic mouse model at 0.4 to 1.1 mg added daily to normal chow pellets for 10 weeks by qRT-PCR analysis; type: functional, organism-based
Mus musculus [25] = organism: Mus musculus; experiment: Effect on PPARalpha mRNA expression levels in adipose tissue of KK-Ay diabetic mouse model at 0.4 to 1.1 mg added daily to normal chow pellets for 10 weeks by qRT-PCR analysis; type: functional, organism-based
Mus musculus [26] = organism: Mus musculus; experiment: Effect on InsR mRNA expression levels in muscle of KK-Ay diabetic mouse model at 0.4 to 1.1 mg added daily to normal chow pellets for 10 weeks by qRT-PCR analysis; type: functional, organism-based
Mus musculus [27] = organism: Mus musculus; experiment: Effect on Adipor1 mRNA expression levels in liver of KK-Ay diabetic mouse model at 0.4 to 1.1 mg added daily to normal chow pellets for 10 weeks by qRT-PCR analysis; type: functional, organism-based
Mus musculus [28] = organism: Mus musculus; experiment: Effect on AMPKalpha2 mRNA expression levels in adipose tissue of KK-Ay diabetic mouse model at 0.4 to 1.1 mg added daily to normal chow pellets for 10 weeks by qRT-PCR analysis; type: functional, organism-based
Mus musculus [29] = organism: Mus musculus; experiment: Effect on GYS2 mRNA expression levels in muscle of KK-Ay diabetic mouse model at 0.4 to 1.1 mg added daily to normal chow pellets for 10 weeks by qRT-PCR analysis; type: functional, organism-based
Mus musculus [30] = organism: Mus musculus; experiment: Effect on GLUT2 mRNA expression levels in adipose tissue of KK-Ay diabetic mouse model at 0.4 to 1.1 mg added daily to normal chow pellets for 10 weeks by qRT-PCR analysis; type: functional, organism-based
Mus musculus [31] = organism: Mus musculus; experiment: Antidiabetic activity in KK-Ay diabetic mouse model assessed as reduction in HOMA-IR levels at 0.4 mg added daily to normal chow pellets for 10 weeks; type: functional, organism-based
Mus musculus [32] = organism: Mus musculus; experiment: Effect on FAS mRNA expression levels in muscle of KK-Ay diabetic mouse model at 0.4 to 1.1 mg added daily to normal chow pellets for 10 weeks by qRT-PCR analysis; type: functional, organism-based
Mus musculus [33] = organism: Mus musculus; experiment: Effect on GLUT2 mRNA expression levels in liver of KK-Ay diabetic mouse model at 0.4 to 1.1 mg added daily to normal chow pellets for 10 weeks by qRT-PCR analysis; type: functional, organism-based

Measured: Activity

C[C@@]12CCc3occc3[C@H]1CC[C@@]13C[C@H](CC[C@H]12)[C@@](O)(CO)C3
75%: Mus musculus [7]
Non-Toxic: Mus musculus [19]
5.4 g: Mus musculus [23]
5.9 g: Mus musculus [3]
inactive: all other assays above
